Results reported in patent publication US20250129127A1, “Systems for Amplification of AAV Rep and Cap Proteins” (priority 2022, published 2025).
Read-outs that look alike come from different tables or passages of the source.

Columns and labels:
AAV capsid = assay: Capsid ELISA for total capsid titer after induction; type: cell-based; settings: 1000 uM MSX; Fuji cell culture media lacking Gln; compared to T223 cells not exposed to MSX
Experimental: (§1) Capsid ELISA was performed to determine total capsid titer. Nuclease treatment and qPCR were performed to determine the titer of capsids encapsidating the viral genome (e.g., the payload construct). […] Fuij 7-2 cell media with 4 mM glutamax was used in the cell culture.

AAV viral genomes = assay: Titer of capsids encapsidating the viral genome by nuclease treatment and qPCR after induction with doxycycline and tamoxifen; type: cell-based; settings: 1000 uM MSX; Fuji cell culture media lacking Gln; compared to T223 cells not exposed to MSX
Experimental: as §1

T223 cells = test system: T223 cells
Text: FIG. 9 provides a schematic for GS repression/inhibition for the pathways described in FIG. 8. A GS-KO P2 cell line is independently transfected with the various Rep/Cap GS constructs (see above and FIG. 8). P3 cells are selected in cell culture media lacking glutamine (-Gln) to select for cells expressing a higher level of GS.

Structure (SMILES): CS(=N)(=O)CC[C@H](N)C(=O)O (some centres unmarked) [MSX, methionine sulfoximine]
- viral particles (Capsids/mL) in T223 cells (AAV capsid): increased levels
- viral genomes (vg/mL) in T223 cells (AAV viral genomes): increased levels
- MSX concentration from which survival is impacted (T223 cells; P3 T223 cells expressing wild type GS): ≥ 250 µM
- MSX concentration from which survival is impacted (T223 cells; T223 cells expressing full length GS, selective media): ≥ 250 µM
- reduction of viability (T223 cells; T223 cells, 500 uM MSX (of 50, 100, 250, 500 uM tested)): most effective in reducing viability
